From BigSolDB 2.1

Cc1ccc[n+](CCCC[n+]2cccc(C)c2)c1.F[P-](F)(F)(F)(F)F.F[P-](F)(F)(F)(F)F
solubility (mole fraction)
Conditions | 288.15 K | 293.15 K | 298.15 K | 303.15 K | 308.15 K | 313.15 K | 318.15 K | 323.15 K | 328.15 K | 333.15 K
in 2-butanone | 0.00289 | 0.00328 | 0.00379 | 0.00439 | 0.00496 | 0.00556 | 0.00623 | 0.00706 | 0.00771 | 0.00856
in acetophenone | – | – | 0.000748 | 0.00103 | 0.00138 | 0.00183 | 0.0024 | 0.00311 | 0.00428 | 0.00556
in acetylacetone | 0.00119 | 0.00157 | 0.00214 | 0.00282 | 0.00368 | 0.00462 | 0.00598 | 0.00807 | 0.0101 | 0.0136
in cyclohexanone | 0.000205 | 0.000333 | 0.00051 | 0.000746 | 0.000967 | 0.00121 | 0.00146 | 0.00164 | 0.0018 | 0.00186
in water | 2e-06 | 3e-06 | 5e-06 | 8e-06 | 1.4e-05 | 2.4e-05 | 3.9e-05 | 6.3e-05 | 9.8e-05 | 0.000157
